Values of other authors, collected in patent US11045550B2, “Use of an amino sugar as plasticizer” (Merck Patent GmbH, priority 2016, dated 2021).
One block for each compound: values may come before it.

Experiments:
[1] = at 144° C., literature data

pKa (strongest acidic): 3.65
SMILES: CCCc1nc2c(C)cc(-c3nc4ccccc4n3C)cc2n1Cc1ccc(-c2ccccc2C(=O)O)cc1 [Telmisartan]

Ibuprofen degraded when processed by HME [1]: 11.6%
SMILES: CC(C)Cc1ccc(C(C)C(=O)O)cc1 (stereo not shown) [Ibuprofen]

pKa (strongest basic): 3.92
SMILES: CCC(C)n1ncn(-c2ccc(N3CCN(c4ccc(OCC5COC(Cn6cncn6)(c6ccc(Cl)cc6Cl)O5)cc4)CC3)cc2)c1=O (stereo not shown) [Itraconazole]

SMILES: CNC[C@@H](O)[C@@H](O)[C@H](O)[C@H](O)CO [Meglumine, D-(−)-N-Methylglucamine]
pKa value: 9.60
